# From patent US20250049891A1, “NOVEL PEPTIDE DERIVATIVE DERIVED FROM ADIPONECTIN AND USE THEREOF” (SEOUL NATIONAL UNIVERSITY HOSPITAL, priority 2021, published 2025)
# Numbered stars: 1 amine (or outer) side, 2 acyl side, 3 side chain; on linkers, the order of the positions; unused ones are H or OH. Bridge positions count the residues as written; N and C are the ends. Square brackets hold non-standard residues; d marks the D form. Peptide text beside a SMILES is read from it. ξ: configuration not given here. ξhAlg = O=C(C(CCC=[*:3])N[*:1])[*:2]; AllylGly = C=CC[CH](N)C(=O)O
# Assays:
# AMPK phosphorylation = AMPK phosphorylation activity in mouse adipocytes (Western blot); type: cell-based; conditions: 3T3-L1, 10 μM, 24 hours; for AMPK phosphorylation activity (fold change): APN5 = 1.0
# Procedure: There were confirmed effects of the peptide derivatives of the present disclosure on the expression and receptor activity of adiponectin in mouse adipocytes as a main adiponectin production site. A mouse adipocyte cell line 3T3-L1 was treated with each of the peptide derivatives of the present disclosure at a concentration of 10 μM and cultured for 24 hours, and then cells were obtained. Thereafter, the proteins were extracted and the effect on AMPK phosphorylation, which was responsible for the main downstream signaling of adiponectin, was confirmed by Western blot.
# adiponectin receptor 1 = target: T1, adiponectin receptor 1 (Mus musculus, UniProt Q91VH1); assay: AMPK phosphorylation activity after knockdown of adiponectin receptor 1 (siRNA, Western blot); type: cell-based; conditions: 3T3-L1, adiponectin receptor 1 siRNA, 10 μM, 24 hours
# T1 construct: a mouse adipocyte cell line 3T3-L1 was treated with siRNA of an adiponectin receptor 1 to be knocked down; endogenous in cells; host or cells: 3T3-L1 mouse adipocyte cell line
# T1 sequence (Q91VH1 1-375): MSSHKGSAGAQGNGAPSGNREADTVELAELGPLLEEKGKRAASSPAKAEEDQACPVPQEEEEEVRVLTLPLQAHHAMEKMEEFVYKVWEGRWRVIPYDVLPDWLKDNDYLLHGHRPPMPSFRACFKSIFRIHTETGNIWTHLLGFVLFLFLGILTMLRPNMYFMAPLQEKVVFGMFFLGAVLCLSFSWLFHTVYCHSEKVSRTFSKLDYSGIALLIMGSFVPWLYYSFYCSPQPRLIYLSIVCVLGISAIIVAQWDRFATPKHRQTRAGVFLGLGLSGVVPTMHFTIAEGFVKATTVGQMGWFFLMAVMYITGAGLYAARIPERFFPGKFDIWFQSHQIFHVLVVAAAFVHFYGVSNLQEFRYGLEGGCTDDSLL
# Procedure: In order to verify whether the peptide derivative of the present disclosure bound to an adiponectin receptor 1, a mouse adipocyte cell line 3T3-L1 was treated with siRNA of an adiponectin receptor 1 to be knocked down, and each of the peptide derivatives of the present disclosure was treated at 10 μM and cultured for 24 hours, and then cells were obtained. Thereafter, the proteins were extracted and it was confirmed by Western blot whether AMPK phosphorylation activity, which had been increased by the peptide derivatives, was lost.
# physchem = conditions: pH 7.4, aqueous buffer, kinetic from dmso stock
# Procedure: A PRISMA HT solution was diluted in distilled water at a ratio of 1:40, and then used as a test buffer by adjusting the pH to 7.4.
# 10 mL of the prepared test material was diluted in 190 μL of isopropyl alcohol and prepared. In addition, 75 mL of the test solution and 70 mL of isopropyl alcohol were mixed to be used as a blank sample, and 5 mL of the test material diluted in isopropyl alcohol was added to the blank sample. After the diluted sample was mixed, the absorbance was measured and used as an initial test value. […] Thereafter, the precipitate was removed from the sample using a filter plate, 74 mL of the filtered sample was added with 75 mL of isopropyl alcohol, and then the absorbance was measured and used as the sample value.
# The solubility value of the test material was analyzed using a msol Explore (Solubility explorer program) after measuring the absorbance of each sample through a microplate reader. The average and standard deviation of the experimental values (n=3) repeated three times were calculated using the Excel program.
# in vitro [1] = conditions: human, plasma
# Procedure: (§2) The peptide derivative of the present disclosure was added at a concentration of 1 μM to two types of plasma (human, rat), placed in each tube, and then cultured at 37° C. for time of 0, 30, 60, 120, and 240 minutes. The tube containing plasma was taken out every time, added with an acetonitrile solution containing an internal standard material (chlorpropamide), vortexed for 5 minutes, and centrifuged for 5 minutes (14,000 rpm, 4° C.). Thereafter, the plasma stability of the peptide derivative was evaluated by injecting the supernatant into an LC-MS/MS system and analyzing the drug at each time period. At this time, Procaine and Enalapril were used as reference materials for accuracy during a general plasma stability test.
# (§3) After the reaction, the amount of drug remaining in each tube was analyzed by LC-MS/MS using Shimadzu Nexera XR system and TSQ vantage (Thermo). The HPLC column was used with a Luna C18 column (2.0×50 mm, 3 μm particle size; Phenomenex, US), and the mobile phase was distilled water (A) containing 0.1% formic acid and acetonitrile (B) containing 0.1% formic acid. Data analysis was performed using Xcalibur (version 1.6.1). In the result analysis, the plasma stability of each peptide derivative was expressed as % remaining for each time period for the sample without culture.
# in vitro [2] = conditions: human, microsomes, pH 7.4
# Procedure: (§4) Three types of liver microsomes (Human, Rat, Mouse, 0.5 mg/ml), a 0.1 M phosphate buffer solution (pH 7.4), and the peptide derivative of the present disclosure were added at a concentration of 1 μM and pre-cultured at 37° C. for 5 minutes, and then added with an NADPH Regeneration system solution and cultured at 37° C. for 30 minutes. Thereafter, to terminate the reaction, the mixture was added with an acetonitrile solution containing an internal standard material (chlorpropamide), centrifuged for 5 minutes (14,000 rpm, 4° C.), and then the supernatant was injected into the LC-MS/MS system to analyze a substrate drug, and thus metabolic stability was evaluated.
# The HPLC column was used with a Kinetex C18 column (2.1×100 mm, 1.7 μm particle size; Phenomenex, USA), and the mobile phase was distilled water (A) containing 0.1% formic acid and acetonitrile (B) containing 0.1% formic acid. TurboSpray Ionization was used as an ion source for MS/MS, and a triple quadruple type was used as a mass spectrometer. The produced metabolites were quantified using a multiple reaction monitoring (MRM) quantitative mode, and data analysis was performed using Analyst software (version 1.6.1).
# [3] = Metabolic stability test, mouse liver microsomes; type: in vitro ADME; conditions: pH 7.4, mouse liver microsomes 0.5 mg/ml, NADPH, 37° C., 30 m
# Procedure: as §4
# (§5) The amount of substrate remaining through the reaction was analyzed by LC-MS/MS using Agilent 1290 infinity series pump system (Agilent, USA) and Triple Quad 5500 LC-MS/MS system (Applied Biosystems, USA). The HPLC column was used with a Kinetex C18 column (2.1×100 mm, 1.7 μm particle size; Phenomenex, USA), and the mobile phase was distilled water (A) containing 0.1% formic acid and acetonitrile (B) containing 0.1% formic acid. TurboSpray Ionization was used as an ion source for MS/MS, and a triple quadruple type was used as a mass spectrometer. The produced metabolites were quantified using a multiple reaction monitoring (MRM) quantitative mode, and data analysis was performed using Analyst software (version 1.6.1).
# [4] = Metabolic stability test, rat liver microsomes; type: in vitro ADME; conditions: pH 7.4, rat liver microsomes 0.5 mg/ml, NADPH, 37° C., 30 m
# Procedure: as §4, §5
# CYP1A2 = target: T2, CYP1A2 (Homo sapiens, UniProt P05177); conditions: microsomes, 10 µM
# T2 sequence (P05177 1-516): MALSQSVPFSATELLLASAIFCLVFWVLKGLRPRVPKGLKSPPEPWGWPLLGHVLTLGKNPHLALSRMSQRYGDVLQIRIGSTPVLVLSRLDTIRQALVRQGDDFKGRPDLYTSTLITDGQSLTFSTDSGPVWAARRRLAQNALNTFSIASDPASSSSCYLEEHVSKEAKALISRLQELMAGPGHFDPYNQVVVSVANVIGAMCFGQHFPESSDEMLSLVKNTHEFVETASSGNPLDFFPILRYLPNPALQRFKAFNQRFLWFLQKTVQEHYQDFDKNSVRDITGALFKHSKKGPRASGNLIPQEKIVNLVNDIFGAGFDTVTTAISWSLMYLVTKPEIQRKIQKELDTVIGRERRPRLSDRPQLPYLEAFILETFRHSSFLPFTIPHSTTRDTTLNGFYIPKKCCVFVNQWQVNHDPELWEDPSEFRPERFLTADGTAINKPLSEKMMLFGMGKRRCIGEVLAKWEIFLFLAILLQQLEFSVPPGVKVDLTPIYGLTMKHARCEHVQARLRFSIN
# Procedure: (§1) Metabolites of each CYP isoenzyme indicator drug produced through the reaction were analyzed by LC-MS/MS using the Shimadzu Nexera XR system and TSQ vantage (Thermo).
# CYP2C19 = CYP2C19 (Homo sapiens, UniProt P33261); conditions: microsomes, 10 µM
# Procedure: as §1
# CYP3A4 = CYP3A4 (Homo sapiens, UniProt P08684); conditions: microsomes, 10 µM
# Procedure: as §1
# CYP2D6 = CYP2D6 (Homo sapiens, UniProt P10635); conditions: microsomes, 10 µM
# Procedure: as §1
# CYP2C9 = CYP2C9 (Homo sapiens, UniProt P11712); conditions: microsomes, 10 µM
# Procedure: as §1
# in vitro [5] = conditions: rat, plasma
# Procedure: as §2, §3
# [6] = Plasma stability test, rat plasma; conditions: rat plasma, 1 μM, 37° C.
# Procedure: as §2, §3
# [7] = Plasma stability test, human plasma; conditions: human plasma, 37° C.
# Procedure: as §2, §3
# Chain of CYP2C9 (P11712 whole entry): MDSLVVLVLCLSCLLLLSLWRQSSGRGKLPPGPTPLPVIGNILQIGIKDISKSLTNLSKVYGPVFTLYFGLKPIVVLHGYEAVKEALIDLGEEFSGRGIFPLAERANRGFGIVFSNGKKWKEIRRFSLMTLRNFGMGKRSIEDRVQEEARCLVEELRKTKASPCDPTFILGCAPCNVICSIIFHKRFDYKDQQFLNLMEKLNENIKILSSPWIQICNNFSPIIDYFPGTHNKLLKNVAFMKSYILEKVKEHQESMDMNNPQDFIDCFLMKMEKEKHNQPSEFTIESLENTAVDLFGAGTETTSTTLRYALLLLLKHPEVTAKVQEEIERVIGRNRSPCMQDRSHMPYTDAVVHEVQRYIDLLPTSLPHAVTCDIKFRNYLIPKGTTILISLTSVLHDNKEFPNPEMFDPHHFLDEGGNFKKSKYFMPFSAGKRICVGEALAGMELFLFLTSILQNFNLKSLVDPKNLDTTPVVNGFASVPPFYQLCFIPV
# Chain of CYP3A4 (P08684 whole entry): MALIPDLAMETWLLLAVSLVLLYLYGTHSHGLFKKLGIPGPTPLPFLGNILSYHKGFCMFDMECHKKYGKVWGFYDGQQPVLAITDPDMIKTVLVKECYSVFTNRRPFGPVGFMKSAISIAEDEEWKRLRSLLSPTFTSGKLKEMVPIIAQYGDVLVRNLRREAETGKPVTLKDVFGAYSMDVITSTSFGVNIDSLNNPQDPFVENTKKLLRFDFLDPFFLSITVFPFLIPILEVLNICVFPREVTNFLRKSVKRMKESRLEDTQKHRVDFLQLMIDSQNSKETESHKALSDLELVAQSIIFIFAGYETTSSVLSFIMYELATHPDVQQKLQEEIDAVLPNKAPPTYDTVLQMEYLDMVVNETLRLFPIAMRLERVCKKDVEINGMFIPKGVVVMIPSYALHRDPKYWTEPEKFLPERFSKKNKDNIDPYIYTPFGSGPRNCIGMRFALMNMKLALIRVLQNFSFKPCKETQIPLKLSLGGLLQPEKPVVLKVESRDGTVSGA
# Chain of CYP2C19 (P33261 whole entry): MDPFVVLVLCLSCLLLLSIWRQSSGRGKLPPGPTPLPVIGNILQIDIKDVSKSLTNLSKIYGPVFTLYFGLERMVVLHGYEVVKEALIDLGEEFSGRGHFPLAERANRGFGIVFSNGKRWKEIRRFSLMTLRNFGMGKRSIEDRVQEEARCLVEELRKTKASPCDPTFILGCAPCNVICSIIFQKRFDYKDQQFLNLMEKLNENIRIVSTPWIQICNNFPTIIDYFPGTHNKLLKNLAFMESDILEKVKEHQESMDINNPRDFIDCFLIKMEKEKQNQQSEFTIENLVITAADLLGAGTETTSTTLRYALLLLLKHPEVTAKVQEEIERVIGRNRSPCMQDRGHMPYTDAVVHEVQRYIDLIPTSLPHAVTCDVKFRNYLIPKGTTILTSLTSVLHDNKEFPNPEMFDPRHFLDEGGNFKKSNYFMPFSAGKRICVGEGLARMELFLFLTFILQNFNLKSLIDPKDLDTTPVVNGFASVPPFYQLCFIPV
# Chain of CYP2D6 (P10635 whole entry): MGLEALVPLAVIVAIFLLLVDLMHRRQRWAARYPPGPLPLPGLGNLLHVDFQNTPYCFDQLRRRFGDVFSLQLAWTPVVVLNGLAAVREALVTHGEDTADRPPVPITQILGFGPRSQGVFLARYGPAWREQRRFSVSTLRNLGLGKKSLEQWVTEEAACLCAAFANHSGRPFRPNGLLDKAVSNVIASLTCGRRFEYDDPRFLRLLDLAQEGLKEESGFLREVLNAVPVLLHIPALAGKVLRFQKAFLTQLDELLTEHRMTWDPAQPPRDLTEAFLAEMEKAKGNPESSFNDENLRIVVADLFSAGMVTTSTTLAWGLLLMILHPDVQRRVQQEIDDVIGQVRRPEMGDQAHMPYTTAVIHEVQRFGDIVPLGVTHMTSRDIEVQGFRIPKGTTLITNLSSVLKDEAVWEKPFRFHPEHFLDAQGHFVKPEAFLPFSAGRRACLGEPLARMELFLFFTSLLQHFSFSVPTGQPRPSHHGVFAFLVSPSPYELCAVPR
Compound,AMPK phosphorylation activity (fold change) (AMPK phosphorylation),"remaining at 0.5 h, 1 μM (in vitro [1]) [%]","remaining at 2 h, 1 μM (in vitro [1]) [%]","remaining at 0.5 h, 1 μM (in vitro [2]) [%]","remaining at 0.5 h, 1 μM [3] [%]","remaining at 0.5 h, 1 μM [4] [%]",CYP inhibition (% of control activity) CYP1A2 (CYP1A2),CYP inhibition (% of control activity) CYP2C19 (CYP2C19),CYP inhibition (% of control activity) CYP3A4 (CYP3A4),CYP inhibition (% of control activity) CYP2D6 (CYP2D6),CYP inhibition (% of control activity) CYP2C9 (CYP2C9),"remaining at 0.5 h, 1 μM (in vitro [5]) [%]","remaining at 2 h, 1 μM (in vitro [5]) [%]",other results
"NCC(=O)NC(CC(N)=O)C(=O)NC(Cc1ccc(O)cc1)C(=O)NC(Cc1ccc(O)cc1)C(=O)NC(Cc1ccccc1)C(=O)O (stereo not drawn) [DS-9, NH2-GNYYF-OH] (H-GNYYF-OH; configuration not given here)",1.6,–,–,–,–,–,–,–,–,–,–,–,–,–
"CC(C)CC(NC(=O)CN)C(=O)NC(Cc1c[nH]c2ccccc12)C(=O)NC(Cc1ccc(O)cc1)C(=O)NC(Cc1ccccc1)C(N)=O (stereo not drawn) [DS-17, NH2-GLWYF-NH2] (H-GLWYF-NH2; configuration not given here)",1.2,–,–,–,–,–,–,–,–,–,–,–,–,AMPK phosphorylation activity compared to APN5 (in words) (AMPK phosphorylation): significant effect of increasing AMPK phosphorylation activity; AMPK phosphorylation activity after knockdown of the adiponectin receptor 1 (adiponectin receptor 1): decreased the AMPK phosphorylation activity after knockdown of the adiponectin receptor 1
"CCC(C)C(NC(=O)CN)C(=O)NC(Cc1c[nH]c2ccccc12)C(=O)NC(Cc1ccc(O)cc1)C(=O)NC(Cc1ccccc1)C(N)=O (stereo not drawn) [DS-18, NH2-GIWYF-NH2] (H-GIWYF-NH2; configuration not given here)",1.2,–,–,–,–,–,–,–,–,–,–,–,–,AMPK phosphorylation activity compared to APN5 (in words) (AMPK phosphorylation): significant effect of increasing AMPK phosphorylation activity; AMPK phosphorylation activity after knockdown of the adiponectin receptor 1 (adiponectin receptor 1): decreased the AMPK phosphorylation activity after knockdown of the adiponectin receptor 1
"NC(CC(=O)O)C(=O)NC(Cc1ccc(O)cc1)C(=O)NC(Cc1ccc(O)cc1)C(=O)NC(Cc1ccccc1)C(=O)O (stereo not drawn) [DS-27, NH2-DYYF-OH] (H-DYYF-OH; configuration not given here)",1.3,–,–,–,–,–,–,–,–,–,–,–,–,solubility at 24 h (physchem): 300 µg/mL
"NC(=O)C(Cc1ccccc1)NC(=O)C(Cc1ccc(O)cc1)NC(=O)C(Cc1ccc(O)cc1)NC(=O)C(N)CC(=O)O (stereo not drawn) [DS-29, NH2-DYYF-NH2] (H-DYYF-NH2; configuration not given here)",1.2,–,–,–,–,–,–,–,–,–,–,–,–,solubility at 24 h (physchem): 300 µg/mL
"NCCCCC(NC(=O)C(Cc1ccc(O)cc1)NC(=O)C(Cc1ccc(O)cc1)NC(=O)C(CC(=O)O)NC(=O)CN)C(N)=O (stereo not drawn) [DS-35, NH2-GDYYK-NH2] (H-GDYYK-NH2; configuration not given here)",–,2.9,< 1,> 100,99.2,95.8,77.7 % of control activity,4.1 % of control activity,>100 % of control activity,97.4 % of control activity,93.6 % of control activity,99.4,89.4,–
"CC(C)CC(NC(=O)CN)C(=O)N(C)C(Cc1ccc(O)cc1)C(=O)NC(Cc1ccc(O)cc1)C(=O)NC(Cc1ccccc1)C(N)=O (stereo not drawn) [DS-56, NH2-GLY(N-Me)YF-NH2]",–,2.8,< 1,53.9,10.6,41.1,80.5 % of control activity,73.5 % of control activity,9.2 % of control activity,91.6 % of control activity,100.0 % of control activity,70.9,29.4,–
CC(C)CC1NC(=O)C(N)CC/C=C\CC(C(N)=O)NC(=O)C(Cc2ccc(O)cc2)NC(=O)C(Cc2ccc(O)cc2)NC1=O (stereo not drawn) [DS-73] (H-[ξhAlg]LYY[AllylGly]-NH2; staple (Z) 1-5; configuration not given here),–,94.7,75.2,71.6,78,65.7,82.7 % of control activity,85.1 % of control activity,80.5 % of control activity,85.9 % of control activity,96.5 % of control activity,> 100,89.3,solubility at 24 h (physchem): 315 µg/mL
CCOC(=O)[C@H](CCc1ccccc1)N[C@@H](C)C(=O)N1CCC[C@H]1C(=O)O [Enalapril],–,–,–,–,–,–,–,–,–,–,–,–,–,"Plasma stability (% remaining) Rat, 30 m [6]: 27.9 % remaining; Plasma stability (% remaining) Rat, 120 m [6]: <1 % remaining; Plasma stability (% remaining) Human, 30 m ([7]; 1 μM, 30 m): >100 % remaining; Plasma stability (% remaining) Human, 120 m ([7]; 1 μM, 120 m): 197.4 % remaining"
"CC(=O)N1CCN(c2ccc(OCC3COC(Cn4ccnc4)(c4ccc(Cl)cc4Cl)O3)cc2)CC1 (stereo not drawn) [Ketoconazole, reference compound]",–,–,–,–,–,–,97.2 % of control activity,>100 % of control activity,–,–,>100 % of control activity,–,–,–
CCN(CC)CCOC(=O)c1ccc(N)cc1 [Procaine],–,–,–,–,–,–,–,–,–,–,–,–,–,"Plasma stability (% remaining) Rat, 30 m [6]: 90.3 % remaining; Plasma stability (% remaining) Rat, 120 m [6]: 57.4 % remaining; Plasma stability (% remaining) Human, 30 m column, marked (5 min) ([7]; cell marked (5 min)): 2.8 % remaining; Plasma stability (% remaining) Human, 120 m column, marked (5 min) ([7]; cell marked (5 min)): <1 % remaining"
"Ac-GDYYF-NH2 [DS-8, AcNH-GDYYF-NH2]",–,39.8,3.3,93.9,83.6,78.2,95.1 % of control activity,100 % of control activity,>100 % of control activity,>100 % of control activity,>100 % of control activity,> 100,96,–
"H-GDYYF-OH [DS-5, NH2-GDYYF-OH]",–,1.4,< 1,62.5,95.9,66.4,83.2 % of control activity,80.9 % of control activity,90.9 % of control activity,85.5 % of control activity,97.3 % of control activity,> 100,94.1,solubility kinetic at 24 h (physchem): 328 µg/mL
